This note sets out measurements from ChEMBL document CHEMBL2202979, “Development of macrocyclic inhibitors of HCV NS3/4A protease with cyclic constrained P2-P4 linkers” (Bioorg Med Chem Lett, 2012).

The target of series [1] is Hepatitis C virus serine protease, NS3/NS4A (Hepatitis C virus, UniProt A3EZI9+D2K2A8, R155K). Briefly: Inhibition of HCV genotype 1b BK NS3/4A protease R155K mutant expressed in Escherichia coli incubated for 30 mins by time-resolved fluorescence assay. Details: species or system Hepatitis C virus (isolate BK).
Series [2] in a line: Inhibition of HCV genotype 1b BK NS3/4A protease expressed in Escherichia coli incubated for 30 mins by time-resolved fluorescence assay. Details: species or system Hepatitis C virus (isolate BK).
Series [3] in a line: Inhibition of HCV subtype 3a NS3/4A protease incubated for 30 mins by time-resolved fluorescence assay. Set-up: species or system Hepatitis C virus subtype 3a.
Series [4] concerns the target Genome polyprotein (Hepacivirus C, UniProt K7XJL6, D168V). The series is described as follows: Inhibition of HCV genotype 1b BK NS3/4A protease D168V mutant expressed in Escherichia coli incubated for 30 mins by time-resolved fluorescence assay. Set-up: species or system Hepatitis C virus (isolate BK).
Series [5] is described as follows: Inhibition of HCV genotype 2a JFH NS3/4A protease expressed in Escherichia coli incubated for 30 mins by time-resolved fluorescence assay. Set-up: species or system Hepatitis C virus JFH-1.
Series [6] in a line: Drug level in Sprague-Dawley rat liver at 5 mg/kg, po measured 4 hrs post dose by LC/MS method. The class given is ADME, organism-based. Set-up: dose 5 mg/kg, route oral. The settings on record: read-out: Drug uptake.
For series [7], the target named is Genome polyprotein (Hepacivirus C, UniProt K7XJL6, A156V). The series is described as follows: Inhibition of HCV genotype 1b BK NS3/4A protease A156V mutant expressed in Escherichia coli incubated for 30 mins by time-resolved fluorescence assay. Details: species or system Hepatitis C virus (isolate BK).
In series [8] the test system is Hepatitis C virus. Briefly: Antiviral activity against HCV genotype 1b Con1 infected in human Huh7 cells assessed as inhibition of viral replication in presence of 50% NHS by HCV bicistronic replicon assay. The class given is functional, organism-based, Hepacivirus hominis. The note with it: Con1, Huh-7.
Series [9] has as its target Genome polyprotein (Hepacivirus C, UniProt K7XJL6, A156T). Briefly: Inhibition of HCV genotype 1b BK NS3/4A protease A156T mutant expressed in Escherichia coli incubated for 30 mins by time-resolved fluorescence assay. Set-up: species or system Hepatitis C virus (isolate BK).
Series [10] deals with Hepatitis C virus. The series is described as follows: Antiviral activity against HCV genotype 1b Con1 infected in human Huh7 cells assessed as inhibition of viral replication in presence of 10% FBS by HCV bicistronic replicon assay. The settings on record: Con1, Huh-7. The class given is functional, organism-based, Hepacivirus hominis.

For the compound `C=C[C@@H]1C[C@]1(NC(=O)[C@@H]1C[C@@H]2CN1C(=O)[C@H](C1CCCC1)NC(=O)OCC(C)(C)CCCc1cc3c(cc(OCC)nc3cc1OC)O2)C(=O)NS(=O)(=O)C1CC1`, the Ki stood at 1.2 nM in [1]; 0.016 nM in series [2]; 2.1 nM in [3]; 2.2 nM on Genome polyprotein [4]; 0.14 nM in series [5].
For `C=C[C@@H]1C[C@]1(NC(=O)[C@@H]1C[C@@H]2CN1C(=O)[C@H](C1CCCC1)NC(=O)OCC(C)(C)C[C@@H]1C[C@@H]1c1cc3c(cc(OCC)nc3cc1OC)O2)C(=O)NS(=O)(=O)C1CC1`, the Ki in series [1] amounted to 0.2 nM; in series [2] it was 0.016 nM; at Genome polyprotein [7], 14 nM; in [3], 1 nM; on Genome polyprotein [9] it was 2.8 nM; at Genome polyprotein [4], 1.8 nM. For the same compound, in series [5], affinity was put at a Ki of 0.14 nM. In series [6], the concentration at 4 h stood at 27 µM. For the same compound, the IC50 with Hepatitis C virus [8] turned out to be 11 nM; in the series with Hepatitis C virus [10], 2.3 nM.
Regarding `C=C[C@@H]1C[C@]1(NC(=O)[C@@H]1C[C@@H]2CN1C(=O)[C@H](C1CCCC1)NC(=O)N1CC[C@@H](C1)OCCC/C=C/c1cc3ccc(OC)cc3nc1O2)C(=O)NS(=O)(=O)C1CC1`, the Ki in [1] was 0.1 nM; in series [2], 0.016 nM; at Genome polyprotein [7], 37 nM; in series [3] it was 3 nM; on Genome polyprotein [9], 2.9 nM; on Genome polyprotein [4] it was 1.2 nM. In series [5], this compound registered a Ki of 0.17 nM. The concentration at 4 h in [6] was determined as 8.6 µM. Besides, the IC50 stood at 32 nM in the series with Hepatitis C virus [8] and 3.1 nM in the series with Hepatitis C virus [10].

The Ki is the equilibrium dissociation constant of an inhibitor or competing ligand from its target. Low values mean a stronger hold on the target, high ones a looser hold on the target. For orientation: IC50 means the concentration at which inhibition is half-maximal.
